Experimental data: US20260306632A1, “NANOPARTICLES FOR PHOTOIMMUNE THERAPY COMPRISING PHOTOSENSITIZER AND ADJUVANT, AND USAGE THEREOF” (KOREA INSTITUTE OF SCIENCE AND TECHNOLOGY, priority 2022, published 2026)
Where two headings read alike, the source gives them in different places.

Test: Solubility of free imiquimod and imiquimod-oleic acid complex (ImO) in water
Type: physicochemical
Conditions: for solubility: highest/lowest concentration examined
Experimental: Nanoparticles (ImiMB) were synthesized using a methylene blue-oleic acid complex (MBO) and Pluronic F-127 with imiquimod in a free imiquimod state without modifying imiquimod with oleic acid. […] Subsequently, 1 ml of distilled water (DW) was used instead of ImO complex solution in the rehydration step of the thin film (FIG. 2).
Therefore, in the present invention, imiquimod was modified with an organic acid to form a cationic adjuvant-organic acid complex for solubility improvement and high-content loading, and then nanoparticles were prepared using the cationic adjuvant-organic acid complex.

| Compound | solubility in water (in words) | solubility | solubility (read-out: solubility) |
| --- | --- | --- | --- |
| imiquimod-oleic acid complex | particle formation occurred well even at a high concentration of 5.0 mg/ml, maintaining a transparent solution form | ≥ 5.0 mg/mL | – |
| CC(C)Cn1cnc2c(N)nc3ccccc3c21 [free imiquimod, imiquimod] | not soluble in water | – | < 0.1 mg/mL |
